Experimental data reported in US20210161131A1, “cis-p-Menthane-1,8-Di-secondary Amine Compounds as well as Their Preparation Methods and Application in Weed Control” (RESEARCH INSTITUTE OF FORESTRY NEW TECHNOLOGY, CHINESE …, priority 2019, published 2021).

Test system: barnyard grass seeds
Assay: Petri dish seed germination method: inhibition of root and stem growth of barnyard grass
Type: in vivo
Conditions: 96 hours incubation
Procedure: (§1) Step 2: Accurately weigh 1 mmol cis-p-menthane-1,8-di-Schiff base compounds and cis-p-menthane-1,8-di-secondary amine compounds respectively, dissolve each of them with 0.25 mL DMF, and add a drop of Tween 80 in each resulted solution. After being fully dissolved, each solution is transferred to a 100 mL volumetric flask respectively and then diluted to the mark with distilled water to obtain a solution with a concentration of 10 mmol/L as the mother liquor. The two-fold dilution method is used to prepare diluted solutions with a series of concentrations (the concentrations of DMF and Tween 80 in the diluted solutions are the same as those in the mother liquor).
(§2) Barnyard grass seeds are placed in a 28° C. incubator and are soaked in an appropriate amount of distilled water for 12 hours there. After the clean water is filtered out, the seeds are then placed in the 28° C. incubator for 24 hours to germinate. Spread 2 pieces of filter paper in each of several Petri dishes, and place 10 barnyard grass seeds with the same size in each dish. Repeat each treatment for three times The dishes are divided into two groups: test dishes and control dishes. Add into each test dish 10 mL of the sample solution with the corresponding concentration of the target compound, and add into each control dish the same amount of the mixture of water, DMF and Tween 80 as the blank control. Add 10 seeds to each of the dishes (both test dishes and control dishes), place them in an artificial climate incubator, and incubate them for 96 hours under a temperature of 28° C., an illumination of 5000 1×, a photoperiod of day:night=16:8 and a relative humidity of 70-80%. The experimental data is processed and analyzed with DPS software to calculate the inhibition rate (y) of cis-p-menthane-1,8-di-secondary amine compounds on the root growth or stem growth of barnyard grass seeds.
Wherein, y is the inhibition rate of root growth or stem growth (%), x0 is the root length or stem length of the control, and x1 is the root length or stem length of the sample.
as §1, with “Accurately” for “Step 2: Accurately”, “cis-p-menthane-1,8-bis-(4-chlorophenyl)Schiff” for “cis-p-menthane-1,8-di-Schiff”, “base” for “base compounds”, “cis-p-menthane-1,8-bis-(4-chlorobenzyl)amine” for “cis-p-menthane-1,8-di-secondary amine compounds”, “(5 mmol/L, 2.5 mmol/L, 1.25 mmol/L, 0.625 mmol/L, 0.3125 mmol/L and 0.1563 mmol/L; the” for “(the”
as §2, with “placed in a 30° C. incubator” for “placed in the 28° C. incubator”, “in each Petri dish,” for “in each of several Petri dishes,”, “each Petri dish, and place” for “several Petri dishes, and place”, “with the above corresponding concentration” for “with the corresponding concentration”, “with DPS software.” for “with DPS software to calculate the inhibition rate (y) of cis-p-menthane-1,8-di-secondary amine compounds on the root growth or stem growth of barnyard grass seeds.”

Row | Structure (SMILES) | inhibition rate on the root growth of barnyard grass seeds (0.15625 mmol/L) [%] | inhibition rate on the stem growth of barnyard grass seeds (0.15625 mmol/L) [%] | inhibition rate on the root growth of barnyard grass seeds (0.3125 mmol/L) [%] | inhibition rate on the stem growth of barnyard grass seeds (0.3125 mmol/L) [%] | inhibition rate on the root growth of barnyard grass seeds (0.625 mmol/L) [%] | inhibition rate on the stem growth of barnyard grass seeds (0.625 mmol/L) [%] | inhibition rate on the root growth of barnyard grass seeds (1.25 mmol/L) [%] | inhibition rate on the stem growth of barnyard grass seeds (1.25 mmol/L) [%] | inhibition rate on the root growth of barnyard grass seeds (2.5 mmol/L) [%] | inhibition rate on the stem growth of barnyard grass seeds (2.5 mmol/L) [%] | inhibition rate on the root growth of barnyard grass seeds (5 mmol/L) [%] | inhibition rate on the stem growth of barnyard grass seeds (5 mmol/L) [%]
1 | CC1(NCc2ccco2)CCC(C(C)(C)NCc2ccco2)CC1 (stereo not drawn) [cis-p-menthane-1,8-bis(furan-2-methyl)amine] | 0 | 0 | 36.3 | 8.6 | 39.0 | 16.1 | 48.8 | 19.3 | 72.7 | 41.1 | 92.7 | 65.3
2 | CC(C)(NCc1ccccn1)[C@H]1CC[C@@](C)(NCc2ccccn2)CC1 [cis-p-menthane-1,8-bis(pyridine-2-methyl)amine] | 18.9 | 23.8 | 20.5 | 26.4 | 33.8 | 30.1 | 61.0 | 46.6 | 95.8 | 65.3 | 100.0 | 88.0
3 | CC1(NCc2cccnc2)CCC(C(C)(C)NCc2cccnc2)CC1 (stereo not drawn) [cis-p-menthane-1,8-bis(pyridine-3-methyl)amine] | 5.7 | 38.0 | 10.2 | 30.6 | 19.2 | 41.5 | 41.4 | 44.6 | 86.1 | 65.3 | 95.2 | 84.9
4 | CC1(NCc2ccncc2)CCC(C(C)(C)NCc2ccncc2)CC1 (stereo not drawn) [cis-p-menthane-1,8-bis(pyridine-4-methyl)amine] | 19.0 | 28.6 | 37.9 | 34.5 | 40.6 | 32.7 | 71.5 | 53.5 | 91.2 | 71.3 | 96.5 | 86.7
5 | CC1(NCc2ccc[nH]2)CCC(C(C)(C)NCc2ccc[nH]2)CC1 (stereo not drawn) [cis-p-menthane-1,8-bis(pyrrole-2-methyl)amine] | 1.7 | 15.4 | 60.5 | 26.5 | 87.7 | 28.6 | 93.1 | 48.2 | 91.9 | 71.5 | 94.4 | 78.3
6 | CC1(NCc2cccs2)CCC(C(C)(C)NCc2cccs2)CC1 (stereo not drawn) [cis-p-menthane-1,8-bis(thiophen-2-methyl)amine] | 0.8 | 13.3 | 1.5 | 28.9 | 5.8 | 39.2 | 50.0 | 45.3 | 75.1 | 51.0 | 86.0 | 59.1
7 | CC1(N=Cc2ccccc2C(F)(F)F)CCC(C(C)(C)N=Cc2ccccc2C(F)(F)F)CC1 (stereo not drawn) [cis-p-menthane-1,8-bis-(2-trifluoromethylbenzyl)Schiff base, reference compound] |  |  | 20.9 | 9 | 15.4 | 13.2 | 2.7 | 17.7 | 20.6 | 12.1 | 34.8 | 21.2
8 | CC(C)(NCc1ccccc1C(F)(F)F)[C@H]1CC[C@@](C)(NCc2ccccc2C(F)(F)F)CC1 [cis-p-menthane-1,8-bis-(2-trifluoromethylbenzyl)amine] | 51.9 | 36.9 | 57.0 | 43.6 | 68.0 | 49.0 | 93. | 59.6 | 100 | 87.4 | 100 | 90.3
9 | CC(C)(N=Cc1ccc(Br)cc1)[C@H]1CC[C@@](C)(N=Cc2ccc(Br)cc2)CC1 [cis-p-menthane-1,8-bis-(4-bromobenzyl)Schiff base, reference compound] |  |  | −3.2 | 6.5 | 28.5 | 19.6 | 46.8 | 42.3 | 72.6 | 39.3 | 69.4 | 55.9
10 | CC(C)(NCc1ccc(Br)cc1)[C@H]1CC[C@@](C)(NCc2ccc(Br)cc2)CC1 [cis-p-menthane-1,8-bis-(4-bromobenzyl)amine] | 30.7 | 25.2 | 57.6 | 35.4 | 83.4 | 51.7 | 89.6 | 58.5 | 97.4 | 88.2 | 100.0 | 92.3
